# Assay results reported in patent US5137892A, “Quinoline, naphthyridine and pyridobenzoxazine derivatives” (Abbott Laboratories, priority 1990, dated 1992).
# Experiments:
# Format in all cases: cell-based
# [1] = tested on: Acinetobacter SP CMX 699; test: In Vitro Antibacterial Activity, agar dilution MIC; conditions: BHI agar dilution, 20-24 hours, unit assumed
# Description: (§1) The activity of the compounds of the present invention was tested against a wide variety of bacteria using standard assay procedures. Minimum inhibitory concentrations (MICs) were determined by the agar dilution method, described below, using Brain Heart Infusion agar.
# (§2) Twelve petri dishes were prepared, each containing successive aqueous 2-fold dilutions of the test compounds mixed with 10 mL of sterilized Brain Heart Infusion (BHI) agar. Each plate was inoculated with 100-fold (or 10-fold, for slow-growing strains such as Micrococcus and Streptococcus) dilutions of up to 32 different microorganisms using a Steers replicator block calibrated to deliver approximately 10^4 colony forming units (CFUs). The inoculated plates were incubated at about 35°-37° C. for approximately 20-24 hours. In addition, a control plate, using BHI agar containing no test compound, was prepared and incubated at the beginning and at the end of each test. Ciprofloxacin was used as the reference antibiotic.
# (§3) The MIC was defined as the lowest concentration of test compound yielding no growth (a slight haze or sparsely isolated colonies at the inoculum spot as compared to the growth control contaning no test compound.
# [2] = tested on: Enterobacter aerogenes ATCC 13048; test: In Vitro Antibacterial Activity, agar dilution MIC; conditions: E. aerogenes ATCC 13048; BHI agar dilution, 20-24 hours; unit assumed
# Description: as §1, §2, §3
# [3] = tested on: Enterococcus faecium ATCC 8043; test: In Vitro Antibacterial Activity, agar dilution MIC; conditions: E. faecium ATCC 8043; BHI agar dilution, 20-24 hours; unit assumed
# Description: as §1, §2, §3
# [4] = tested on: Escherichia coli DC-2; test: In Vitro Antibacterial Activity, agar dilution MIC; conditions: E. coli DC-2; BHI agar dilution, 20-24 hours; unit assumed
# Description: as §1, §2, §3
# [5] = tested on: Escherichia coli H560; test: In Vitro Antibacterial Activity, agar dilution MIC; conditions: E. coli H560; BHI agar dilution, 20-24 hours; unit assumed
# Description: as §1, §2, §3
# [6] = tested on: Escherichia coli JUHL; test: In Vitro Antibacterial Activity, agar dilution MIC; conditions: E. coli JUHL; BHI agar dilution, 20-24 hours; unit assumed
# Description: as §1, §2, §3
# [7] = tested on: Escherichia coli KNK 437; test: In Vitro Antibacterial Activity, agar dilution MIC; conditions: E. coli KNK 437; BHI agar dilution, 20-24 hours; unit assumed
# Description: as §1, §2, §3
# [8] = tested on: Escherichia coli SS; test: In Vitro Antibacterial Activity, agar dilution MIC; conditions: E. coli SS; BHI agar dilution, 20-24 hours; unit assumed
# Description: as §1, §2, §3
# [9] = tested on: Klebsiella pneumoniae ATCC 8045; test: In Vitro Antibacterial Activity, agar dilution MIC; conditions: K. pneumoniae ATCC 8045; BHI agar dilution, 20-24 hours; unit assumed
# Description: as §1, §2, §3
# [10] = tested on: Micrococcus luteus ATCC 4698; test: In Vitro Antibacterial Activity, agar dilution MIC; conditions: M. luteus ATCC 4698; BHI agar dilution, 20-24 hours; unit assumed
# Description: as §1, §2, §3
# [11] = tested on: Micrococcus luteus ATCC 9341; test: In Vitro Antibacterial Activity, agar dilution MIC; conditions: M. luteus ATCC 9341; BHI agar dilution, 20-24 hours; unit assumed
# Description: as §1, §2, §3
# [12] = tested on: Providencia stuartii CMX 640; test: In Vitro Antibacterial Activity, agar dilution MIC; conditions: P. stuartii CMX 640; BHI agar dilution, 20-24 hours; unit assumed
# Description: as §1, §2, §3
# [13] = tested on: Pseudomonas aeruginosa A5007; test: In Vitro Antibacterial Activity, agar dilution MIC; conditions: P. aeruginosa A5007; BHI agar dilution, 20-24 hours; unit assumed
# Description: as §1, §2, §3
# [14] = tested on: Pseudomonas aeruginosa BMH10; test: In Vitro Antibacterial Activity, agar dilution MIC; conditions: P. aeruginosa BMH10; BHI agar dilution, 20-24 hours; unit assumed
# Description: as §1, §2, §3
# [15] = tested on: Pseudomonas aeruginosa K799/WT; test: In Vitro Antibacterial Activity, agar dilution MIC; conditions: P. aeruginosa K799/WT; BHI agar dilution, 20-24 hours; unit assumed
# Description: as §1, §2, §3
# [16] = tested on: Pseudomonas cepacia 2961; test: In Vitro Antibacterial Activity, agar dilution MIC; conditions: P. cepacia 2961; BHI agar dilution, 20-24 hours; unit assumed
# Description: as §1, §2, §3
# [17] = tested on: Staphylococcus aureus 1775; test: In Vitro Antibacterial Activity, agar dilution MIC; conditions: S. aureus 1775; BHI agar dilution, 20-24 hours; unit assumed
# Description: as §1, §2, §3
# [18] = tested on: Staphylococcus aureus 642A; test: In Vitro Antibacterial Activity, agar dilution MIC; conditions: S. aureus 642A; BHI agar dilution, 20-24 hours; unit assumed
# Description: as §1, §2, §3
# [19] = tested on: Staphylococcus aureus A-5278; test: In Vitro Antibacterial Activity, agar dilution MIC; conditions: S. aureus A-5278; BHI agar dilution, 20-24 hours; unit assumed
# Description: as §1, §2, §3
# [20] = tested on: Staphylococcus aureus A5177; test: In Vitro Antibacterial Activity, agar dilution MIC; conditions: S. aureus A5177; BHI agar dilution, 20-24 hours; unit assumed
# Description: as §1, §2, §3
# [21] = tested on: Staphylococcus aureus ATCC 6538P; test: In Vitro Antibacterial Activity, agar dilution MIC; conditions: S. aureus ATCC 6538P; BHI agar dilution, 20-24 hours; unit assumed
# Description: as §1, §2, §3
# [22] = tested on: Staphylococcus aureus CMX 553; test: In Vitro Antibacterial Activity, agar dilution MIC; conditions: S. aureus CMX 553; BHI agar dilution, 20-24 hours; unit assumed
# Description: as §1, §2, §3
# [23] = tested on: Staphylococcus aureus NCTC 10649; test: In Vitro Antibacterial Activity, agar dilution MIC; conditions: S. aureus NCTC 10649; BHI agar dilution, 20-24 hours; unit assumed
# Description: as §1, §2, §3
# [24] = tested on: Staphylococcus epidermidis 3519; test: In Vitro Antibacterial Activity, agar dilution MIC; conditions: S. epidermidis 3519; BHI agar dilution, 20-24 hours; unit assumed
# Description: as §1, §2, §3
# [25] = tested on: Streptococcus agalactaciae CMX 508; test: In Vitro Antibacterial Activity, agar dilution MIC; conditions: S. agalactaciae CMX 508; BHI agar dilution, 20-24 hours; unit assumed
# Description: as §1, §2, §3
# [26] = tested on: Streptococcus bovis A5169; test: In Vitro Antibacterial Activity, agar dilution MIC; conditions: S. bovis A5169; BHI agar dilution, 20-24 hours; unit assumed
# Description: as §1, §2, §3
# [27] = tested on: Streptococcus pyogenes 2548 INDUC; test: In Vitro Antibacterial Activity, agar dilution MIC; conditions: S. pyogenes 2548 INDUC; BHI agar dilution, 20-24 hours; unit assumed
# Description: as §1, §2, §3
# [28] = tested on: Streptococcus pyogenes 930 CONST; test: In Vitro Antibacterial Activity, agar dilution MIC; conditions: S. pyogenes 930 CONST; BHI agar dilution, 20-24 hours; unit assumed
# Description: as §1, §2, §3
# [29] = tested on: Streptococcus pyogenes EES61; test: In Vitro Antibacterial Activity, agar dilution MIC; conditions: S. pyogenes EES61; BHI agar dilution, 20-24 hours; unit assumed
# Description: as §1, §2, §3
# [30] = tested on: Pseudomonas aeruginosa K599/61; conditions: P. aeruginosa K599/61; BHI agar dilution, 20-24 hours; unit assumed
# Description: as §1, §2, §3
# [31] = tested on: Staphylococcus aureus 45; test: In Vitro Antibacterial Activity, agar dilution MIC; conditions: S. aureus 45; BHI agar dilution, 20-24 hours; unit assumed
# Description: as §1, §2, §3
Structure (SMILES),MIC values [1],MIC values [2],MIC values [3],MIC values [4],MIC values [5],MIC values [6],MIC values [7],MIC values [8],MIC values [9],MIC values [10],MIC values [11],MIC values [12],MIC values [13],MIC values [14],MIC values [15],MIC values [16],MIC values [17],MIC values [18],MIC values [20],MIC values [21],also measured
"NC1CN(c2c(F)cc3c(=O)c(C(=O)O)cn(C4CC4)c3c2F)CC12OCCO2 (stereo not drawn) [Example 274, 1-Cyclopropyl-6,8-difluoro-7-(9-amino-1,4-dioxa-7-azaspiro[4.4]non-7-yl)-1,4-dihydro-4-oxo-3-quinolinecarboxylic acid]",0.2 µg/mL,0.2 µg/mL,0.39 µg/mL,0.78 µg/mL,0.2 µg/mL,0.05 µg/mL,0.78 µg/mL,0.002 µg/mL,0.05 µg/mL,0.39 µg/mL,0.39 µg/mL,0.78 µg/mL,1.56 µg/mL,1.56 µg/mL,1.56 µg/mL,6.2 µg/mL,6.2 µg/mL,0.1 µg/mL,0.1 µg/mL,0.05 µg/mL,MIC values [19]: 0.05 µg/mL; MIC values [22]: 0.1 µg/mL; MIC values [23]: 0.05 µg/mL; MIC values [24]: 0.1 µg/mL; MIC values [25]: 0.2 µg/mL; MIC values [26]: 0.39 µg/mL; MIC values [27]: 0.1 µg/mL; MIC values [28]: 0.2 µg/mL; MIC values [29]: 0.2 µg/mL; MIC values [30]: 0.1 µg/mL
"Cl.Cl.NCC1COC2(CCN(c3cc4c(cc3F)c(=O)c(C(=O)O)cn4-c3ccc(F)cc3F)C2)O1 (stereo not drawn) [Example 159, 1-(2,4-difluorophenyl)-7-(2-aminomethyl-1,4-dioxa-7-azaspiro[4.4]non-7-yl)-6-fluoro-1,4-dihydro-4-oxo-3-quinolinecarboxylic acid dihydrochloride]",0.78 µg/mL,0.78 µg/mL,0.78 µg/mL,6.2 µg/mL,0.2 µg/mL,0.39 µg/mL,3.1 µg/mL,0.02 µg/mL,0.39 µg/mL,6.2 µg/mL,12.5 µg/mL,25 µg/mL,3.1 µg/mL,3.1 µg/mL,3.1 µg/mL,50 µg/mL,100 µg/mL,0.39 µg/mL,0.39 µg/mL,0.2 µg/mL,MIC values [31]: 0.78 µg/mL; MIC values [22]: 0.78 µg/mL; MIC values [23]: 0.2 µg/mL; MIC values [24]: 0.78 µg/mL; MIC values [25]: 0.78 µg/mL; MIC values [26]: 0.78 µg/mL; MIC values [27]: 0.39 µg/mL; MIC values [28]: 0.39 µg/mL; MIC values [29]: 0.39 µg/mL; MIC values [30]: 0.39 µg/mL
